Laboratory results from patent US20020198135A1, “Compositions for release of radiosensitizers, and methods of making and using the same” (priority 2000, published 2002).

Key:
[1] = test system: U251 xenograft; assay: U251 xenograft model, IUdR polymer paste with continuous ULDR and fractionated HDR; type: in vivo, mice; details: IUdR via 16.7% P(trans-CHDM/HOP) paste, ULDR 0.03 Gy/hr for 72 hr, FIG. 25
Description: To test the effect of protracted exposure sensitization, a 137-Cs source was mounted a fixed distance above the cages of animals bearing xenografts for whole body continuous ULDR (as defined below). […] For purposes of this experiment, ULDR=0.03 Gy/hr for 72 hr started 24 hours after xenograft transplantation, and HDR=2 Gy twice a day for 4 days, started immediately after ULDR, which is 4 days after implantation.

[2] = test system: human cancer cell line JHU 012; assay: JHU 012 human cancer cell line tumor in the anterior floor of the mouth of nude mice, intratumoral injection; type: in vivo, immunocompromised (nude) mice; details: intratumoral injection ten days after cell injection, same radiation treatment (as appropriate); measured at approximately twenty days after injection
Description: In another in vivo experiment, 1×10^7 cells from the human cancer cell line JHU 012 were injected into the anterior floor of the mouth of immunocompromised (nude) mice. Ten days following injection, animals were anesthetized, tumors measured, intumoral injections of the same compositions identified above were completed followed by the same radiation treatment (as appropriate). At approximately twenty days after injection, animals sacrificed and tumors measured. The following approximate tumor sizes (mm^3) were observed: no treatment, 750; radiation alone, 300; empty microspheres, 500; 47% IUdR microspheres (1.175 mg IUdR in injection volume of 50 ul), 425; empty rods, 250; 33% IUdR rods, 350; and direct intrumoral injection of IUdR (0.065 mg to 0.12 mg in injection volume of 50 ul), 100.

Which results are given for O=c1[nH]c(=O)n([C@H]2C[C@H](O)[C@@H](CO)O2)cc1I [IUdR, 5-iododeoxyuridine]?
xenograft growth delay, combination of IUdR and ULDR compared with ULDR plus HDR [1]: more potent than the combination of IUdR and ULDR; xenograft growth, combination of IUdR, ULDR and HDR ([1]; HDR 2 Gy twice a day for 4 days): tumor regression; approximate tumor size [2]: ~100 mm^3
